PubChem BioAssay AID248 (DTP/NCI, 2004)
Where “and” joins values, the source holds several entries; their conditions need not be identical. Equal values may be shown once. Toxic doses and inconclusive results are not listed.

Tested on: L1210 leukemia ip in BDF1 mice, survival T/C
Assay: NCI In Vivo Anticancer Drug Screen. Data for tumor model L1210 Leukemia (intraperitoneal) in B6D2F1 (BDF1) mice
Details: endpoint: mean survival time, higher = longer survival
Method in brief: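 Each compound was tested against a transplantable tumor grown in mice. The endpoint was survival, with treated animals benchmarked against vehicle controls as a simple ratio.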

[1] = dose: 100.0 mg/kg/injection, schedule: Q01DX001 (ip), vehicle: carboxymethylcellulose (CMC)
[2] = dose: 400.0 mg/kg/injection, schedule: Q01DX001 (ip), vehicle: carboxymethylcellulose (CMC)
[3] = dose: 100.0 mg/kg/injection, schedule: Q04DX003 (ip), vehicle: saline
[4] = dose: 200.0 mg/kg/injection, schedule: Q04DX003 (ip), vehicle: saline
[5] = dose: 400.0 mg/kg/injection, schedule: Q04DX003 (ip), vehicle: saline
[6] = dose: 100.0 mg/kg/injection, schedule: Q01DX001 (ip), vehicle: saline with Tween-80
[7] = dose: 100.0 mg/kg/injection, schedule: Q04DX003 (ip), vehicle: Klucel (hydroxypropylcellulose) (HPC)
[8] = dose: 100.0 mg/kg/injection, schedule: Q01DX001 (ip), vehicle: saline
[9] = dose: 200.0 mg/kg/injection, schedule: Q01DX001 (ip), vehicle: saline
[10] = dose: 400.0 mg/kg/injection, schedule: Q01DX001 (ip), vehicle: saline
[11] = dose: 400.0 mg/kg/injection, schedule: Q04DX003 (ip), vehicle: Klucel (hydroxypropylcellulose) (HPC)
[12] = dose: 100.0 mg/kg/injection, schedule: Q01DX009 (ip), vehicle: saline
[13] = dose: 200.0 mg/kg/injection, schedule: Q01DX009 (ip), vehicle: saline
[14] = dose: 400.0 mg/kg/injection, schedule: Q01DX009 (ip), vehicle: saline
[15] = dose: 100.0 mg/kg/injection, schedule: Q01DX001 (ip), vehicle: Klucel (hydroxypropylcellulose) (HPC)
[16] = dose: 100.0 mg/kg/injection, schedule: Q01DX009 (ip), vehicle: Klucel (hydroxypropylcellulose) (HPC)
[17] = dose: 200.0 mg/kg/injection, schedule: Q01DX001 (ip), vehicle: Klucel (hydroxypropylcellulose) (HPC)
[18] = dose: 200.0 mg/kg/injection, schedule: Q01DX009 (ip), vehicle: Klucel (hydroxypropylcellulose) (HPC)
[19] = dose: 400.0 mg/kg/injection, schedule: Q01DX001 (ip), vehicle: Klucel (hydroxypropylcellulose) (HPC)
[20] = dose: 400.0 mg/kg/injection, schedule: Q01DX009 (ip), vehicle: Klucel (hydroxypropylcellulose) (HPC)
[21] = dose: 100.0 mg/kg/injection, schedule: Q01DX009 (ip), vehicle: saline with Tween-80
[22] = dose: 200.0 mg/kg/injection, schedule: Q01DX009 (ip), vehicle: saline with Tween-80

With c1ccc(-c2cc[s+]s2)cc1 the T/C (dose: 12.5 mg/kg/injection, schedule: Q01DX009 (ip), vehicle: water) was 95 % of control, the T/C (dose: 12.5 mg/kg/injection, schedule: Q04DX003 (ip), vehicle: water) was 98 % of control and the T/C (dose: 25.0 mg/kg/injection, schedule: Q01DX009 (ip), vehicle: water) was 91 % of control. The T/C (dose: 25.0 mg/kg/injection, schedule: Q04DX003 (ip), vehicle: water) was 96 % of control, the T/C (dose: 50.0 mg/kg/injection, schedule: Q01DX009 (ip), vehicle: water) was 98 % of control and the T/C (dose: 50.0 mg/kg/injection, schedule: Q04DX003 (ip), vehicle: water) was 109 % of control.

In the case of CC(=O)OC1CC(OC2C(O)CC(OC3C(O)CC(OC4CCC5(C)C(CCC6C5CC(O)C5(C)C(C7=CC(=O)OC7)CCC65O)C4)OC3C)OC2C)OC(C)C1O (stereo not drawn) (tested in a mixture with another compound), the T/C (dose: 100.0 mg/kg/injection, schedule: Q01DX001 (sc), vehicle: steriod suspending solution) is reported as 97 % of control and the T/C (dose: 200.0 mg/kg/injection, schedule: Q01DX001 (sc), vehicle: steriod suspending solution) is reported as 101 % of control.

In the case of CNS(=O)(=O)c1ccccc1CC(O)(c1ccccc1)c1ccccc1, the T/C (dose: 100.0 mg/kg/injection, schedule: Q01DX001 (ip), vehicle: steriod suspending solution) is reported as 88 % of control and the T/C (dose: 200.0 mg/kg/injection, schedule: Q01DX001 (ip), vehicle: steriod suspending solution) is reported as 87 % of control.

O=C(c1ccccc1)c1cc(CN(CCCl)CCCl)c(O)cc1O was tested, and the T/C [1] was 106 % of control, the T/C (dose: 200.0 mg/kg/injection, schedule: Q01DX001 (ip), vehicle: carboxymethylcellulose (CMC)) was 117 % of control and the T/C [2] was 122 % of control.

In the case of O=C(CCl)NCCO, the T/C [3] is reported as 108 % of control, the T/C [4] is reported as 90 % of control and the T/C [5] is reported as 104 % of control.

For FC(F)(F)c1nc2nc(Cl)c(Cl)nc2[nH]1, the T/C (dose: 6.25 mg/kg/injection, schedule: Q01DX009 (ip), vehicle: saline) was 99 % of control, the T/C (dose: 12.5 mg/kg/injection, schedule: Q01DX009 (ip), vehicle: saline) was 94 % of control and the T/C (dose: 25.0 mg/kg/injection, schedule: Q01DX001 (ip), vehicle: saline with Tween-80) was 106 % of control. For the same compound, the T/C (dose: 25.0 mg/kg/injection, schedule: Q01DX009 (ip), vehicle: other) was 95 % of control, the T/C (dose: 25.0 mg/kg/injection, schedule: Q01DX009 (ip), vehicle: saline) was 103 % of control and the T/C (dose: 33.0 mg/kg/injection, schedule: Q01DX009 (ip), vehicle: other) was 113 % of control. For the same compound, the T/C (dose: 44.0 mg/kg/injection, schedule: Q04DX003 (ip), vehicle: other) was 121 % of control, the T/C (dose: 44.0 mg/kg/injection, schedule: Q04DX003 (ip), vehicle: saline sonified) was 94 % of control and the T/C (dose: 44.0 mg/kg/injection, schedule: Q04DX003 (ip), vehicle: saline with Tween-80) was 102 % of control and 103 % of control. The T/C (dose: 50.0 mg/kg/injection, schedule: Q01DX001 (ip), vehicle: saline with Tween-80) was 96 % of control, the T/C (dose: 50.0 mg/kg/injection, schedule: Q01DX009 (ip), vehicle: saline) was 116 % of control and the T/C (dose: 66.0 mg/kg/injection, schedule: Q04DX003 (ip), vehicle: saline sonified) was 122 % of control. For the same compound, the T/C (dose: 66.0 mg/kg/injection, schedule: Q04DX003 (ip), vehicle: saline with Tween-80) was 109 % of control, the T/C [6] was 110 % of control and the T/C [7] was 154 % of control. For the same compound, the T/C (dose: 100.0 mg/kg/injection, schedule: Q04DX003 (ip), vehicle: other) was 176 % of control, the T/C (dose: 100.0 mg/kg/injection, schedule: Q04DX003 (ip), vehicle: saline sonified) was 159 % of control and the T/C (dose: 100.0 mg/kg/injection, schedule: Q04DX003 (ip), vehicle: saline with Tween-80) was 153 % of control and 156 % of control. For the same compound, the T/C (dose: 150.0 mg/kg/injection, schedule: Q04DX003 (ip), vehicle: saline with Tween-80) was 102 % of control.

With O=C(N/N=C/c1ccc([N+](=O)[O-])cc1)c1cccc2ccccc12 the T/C [8] was 97 % of control, the T/C [9] was 89 % of control and the T/C [10] was 89 % of control.

For CCCCCCCCC(CCCCCCCC)C1CCCCC1, the T/C [6] was 98 % of control, the T/C (dose: 200.0 mg/kg/injection, schedule: Q01DX001 (ip), vehicle: saline with Tween-80) was 95 % of control and the T/C (dose: 400.0 mg/kg/injection, schedule: Q01DX001 (ip), vehicle: saline with Tween-80) was 93 % of control.

For OC(Nc1ncccn1)C(Cl)(Cl)Cl (stereo not drawn), the T/C (dose: 100.0 mg/kg/injection, schedule: Q01DX009 (ip), vehicle: saline sonified) was 96 % of control, the T/C [7] was 95 % of control and the T/C (dose: 200.0 mg/kg/injection, schedule: Q01DX009 (ip), vehicle: saline sonified) was 94 % of control. The T/C (dose: 200.0 mg/kg/injection, schedule: Q04DX003 (ip), vehicle: Klucel (hydroxypropylcellulose) (HPC)) was 102 % of control, the T/C (dose: 400.0 mg/kg/injection, schedule: Q01DX009 (ip), vehicle: saline sonified) was 89 % of control and the T/C [11] was 101 % of control.

For C(=N\N1CCN(/N=C/c2c[nH]c3ccccc23)CC1)/c1c[nH]c2ccccc12, the T/C [8] was 94 % of control, the T/C [9] was 94 % of control and the T/C [10] was 94 % of control.

For CC(O)COCc1ccccc1 (stereo not drawn), the T/C [12] was 103 % of control, the T/C [3] was 94 % of control and the T/C [13] was 94 % of control. For the same compound, the T/C [4] was 94 % of control, the T/C [14] was 97 % of control and the T/C [5] was 90 % of control.

With Cc1ccc(S(=O)(=O)CCCCCl)cc1 the T/C [8] was 101 % of control, the T/C [12] was 100 % of control and the T/C [3] was 95 % of control. For the same compound, the T/C [9] was 96 % of control, the T/C [13] was 97 % of control and the T/C [4] was 92 % of control. The T/C [10] was 104 % of control, the T/C [14] was 89 % of control and the T/C [5] was 98 % of control.

For c1ccc(Nc2nc3ccccc3o2)cc1, the T/C [15] was 93 % of control, the T/C [16] was 92 % of control and the T/C [17] was 89 % of control. The T/C [18] was 95 % of control, the T/C [19] was 86 % of control and the T/C [20] was 94 % of control.

In the case of O=C(CCO)Nc1cccc(Cl)c1, the T/C [15] is reported as 98 % of control, the T/C [16] is reported as 93 % of control and the T/C [17] is reported as 101 % of control. The T/C [18] was 88 % of control, the T/C [19] was 91 % of control and the T/C [20] was 92 % of control.

For CCCCn1cnc2c(=O)[nH]cnc21, the T/C (dose: 66.12 mg/kg/injection, schedule: Q01DX Z (ip), vehicle: carboxymethylcellulose (CMC)) was 93 % of control, the T/C (dose: 132.25 mg/kg/injection, schedule: Q01DX Z (ip), vehicle: carboxymethylcellulose (CMC)) was 94 % of control and the T/C (dose: 132.25 mg/kg/injection, schedule: Q01DX Z (oral), vehicle: carboxymethylcellulose (CMC)) was 100 % of control. The T/C (dose: 264.5 mg/kg/injection, schedule: Q01DX Z (ip), vehicle: carboxymethylcellulose (CMC)) was 90 % of control, the T/C (dose: 264.5 mg/kg/injection, schedule: Q01DX Z (oral), vehicle: carboxymethylcellulose (CMC)) was 96 % of control and the T/C (dose: 529.0 mg/kg/injection, schedule: Q01DX Z (oral), vehicle: carboxymethylcellulose (CMC)) was 94 % of control.

In the case of Cc1ccc(S(=O)(=O)OCC2CO2)c(C)c1 (stereo not drawn), the T/C (dose: 50.0 mg/kg/injection, schedule: Q01DX007 (ip), vehicle: saline with Tween-80) is reported as 106 % of control, the T/C (dose: 100.0 mg/kg/injection, schedule: Q01DX007 (ip), vehicle: saline with Tween-80) is reported as 103 % of control and the T/C (dose: 200.0 mg/kg/injection, schedule: Q01DX007 (ip), vehicle: saline with Tween-80) is reported as 94 % of control.

With CCOC(=O)NC(/C=C/c1ccccc1)NC(=O)OCC the T/C (dose: 50.0 mg/kg/injection, schedule: Q01DX001 (ip), vehicle: carboxymethylcellulose (CMC)) was 92 % of control, the T/C [1] was 95 % of control and the T/C [8] was 102 % of control. For the same compound, the T/C [9] was 96 % of control, the T/C [2] was 95 % of control and the T/C [10] was 100 % of control.

O=C1NC2(CCCC2)C(=O)N2CCCC12 (stereo not drawn) was tested, and the T/C [11] was 97 % of control.

CCCCP(=O)(CCCC)Oc1ccccc1F was tested, and the T/C [21] was 90 % of control and the T/C [22] was 86 % of control.

Cc1c(C)c(C(=O)O)c(C)c(C)c1C(=O)O was tested, and the T/C [21] was 96 % of control, the T/C [22] was 97 % of control and the T/C (dose: 400.0 mg/kg/injection, schedule: Q01DX009 (ip), vehicle: saline with Tween-80) was 102 % of control.
